The results in this text go back to PMC10648852, “Molecular drivers of resistance to sulbactam-durlobactam in contemporary clinical isolates of Acinetobacter baumannii” (Antimicrobial Agents and Chemotherapy, 2023).

This experiment has as its system ARC7093 (AdeJ [G288S]) versus NCTC 13304. The experiment is described as follows: Ethidium bromide uptake (accumulation) assay. The class given is cell-based, A. baumannii. To be noted: over 20 min; 8 µM EtBr; P < 0.0001. An excerpt: This AdeJ variant has been previously described in the context of carbapenem resistance due to the overexpression of the AdeJ pump, although the association was only made based on genotype, not phenotype ([31]). The efflux capacity of ARC7093 was, therefore, compared to NCTC 13304, a SUL-DUR-susceptible clinical isolate with wild-type AdeIJK, in an ethidium bromide accumulation assay. […] Therefore, the AdeJ (G288S) variant may play a role in susceptibility to SUL-DUR in Acinetobacter spp.
NCTC 13304 and ARC7093 were cultured overnight on Tryptic Soy Blood Agar plates. Single colonies were used to inoculate 2 mL of Mueller-Hinton Cation-adjusted Broth (MHBII) and grown overnight at 35°C with shaking. On the day of the experiment, the overnight culture was diluted 100-fold into a flask containing 20 mL of MHBII and grown under the same conditions to OD600 ~0.2. Two-mL aliquots of this logarithmic phase culture were centrifuged. The pellets were gently re-suspended in 2-mL of sterile phosphate-buffered saline (pH 7.0) containing 8 µM EtBr. The cells were transferred to a black-wall, clear-bottom 96-well microplate, and EtBr fluorescence (excitation—530 nm, emission—590 nm) was measured over a period of 20 min in a SpectraMax M5e plate reader (Molecular Devices). Statistical significance for the accumulation of ethidium bromide was determined using an unpaired t-test.

SMILES strings stand for the structures.

As to `CC[n+]1c(-c2ccccc2)c2cc(N)ccc2c2ccc(N)cc21` [ethidium bromide], the “accumulation of ethidium bromide in ARC7093 versus NCTC 13304” value is “significantly lower”.
